Test results from patent publication US20100260694A1, “Methionine Sulfoxide Peptide, Compositions And Methods Of Use” (priority 2009, published 2010).

Tests used:
Msr [1] = assay: Msr expression in NHEK by RT-PCR and gel electrophoresis; format: cell-based, human; settings: for level of Msr compared to a housekeeping gene: keratinocytes, RT-PCR
Procedure: The first material tried was oxidized methionine (the sulfoxide form). […] However, in an experiment performed in February of 2004, an oxidized polypeptide gave very good results. Investigations continued along those lines.
(§1) NHEK cells were incubated overnight in culture medium (control) and in culture medium containing oxidized peptide and in culture medium containing unoxidized peptide (control). Concentrations (mg/mL) of the oxidized peptide included 0.01, 0.1 and 0.25. The unoxidized peptide (i.e. Met-enkephalin) was tested only at 0.25 mg/mL. After incubation, mRNA was extracted from the cells and cDNA was prepared by reverse transcription polymerase chain reaction (RT-PCR). Samples were probed for Msr via gel electrophoresis using β-microglobulin as a control.

Msr [2] = assay: Msr in NHEK, confirmation by Western blotting; format: cell-based, human; settings: overnight incubation
Procedure: as §1

elastase = molecular target: T1, elastase (Sus scrofa, UniProt P00772); assay: Elastase activity assay (Molecular Probes) adapted for inhibition with α1-antitrypsin; format: biochemical
T1 construct: purchased Molecular Probes
Procedure: (§2) Methods: An elastase assay from Molecular Probes was utilized and adapted for inhibition with α1-antitrypsin. Fluorescence was measured by excitation at 485 nm and emission at 525 nm in a CytoFluor plate reader.
This was achieved by incubating 0.1 mg/ml elastin and 0.05 units/ml elastase with α1-antitrypsin in a dose-dependent manner (2.5-50 ug/sample). The results are shown in FIG. 8, where con=control; E=elastase; I=inhibitor (included with assay); AT=α1-antitrypsin.
This was done by oxidizing 10 μg of α1-antitrypsin with hydrogen peroxide.
(§3) This was achieved by incubating the A1AT that had been oxidized in 30 mM H2O2 with 0.7 mg/ml msrA and 10 mM DTT for 2 hours. […] We start with 100% elastase. As before, α1-antitrypsin (AT) removes about 90% of the elastase activity (bar labeled Elastase+AT).

[3] = tested on: Epidermal Full Thickness 200 (EFT 200) living skin models; assay: Sunburn Cell production in UVB-irradiated EFT 200 living skin models; format: cell-based; settings: 1 mg/ml for 48 hours, then 100 mJ/cm^2 UVB
Procedure: Methods: Epidermal Full Thickness 200 (EFT 200) living skin models were obtained from MatTek and incubated for 48 hours in media with or without 1 mg/ml of the MetO-enkephalin. The oxidized peptide can be stored at room temperature. Because the peptide is already oxidized, it has relative low reactivity in storage. Two ml of media were added beneath the living skin models, which were situated on a transwell membrane to allow the maintenance of an air/aqueous interface. After 48 hours, the living skin models were exposed to 100 mJ/cm^2 UVB, re-fed, and incubated overnight. The next day, the samples were fixed in 10% formalin and sent to Paragon Bioservices for histological sectioning and H&E staining. Five contiguous microscopic fields for each section were evaluated for the presence of SBC by counting the number of SBC and uninvolved cells and expressing SBC as a percentage of the total. Sunburn Cells are characterized by eosinophilic staining of the cytoplasm and pyknotic nuclei (condensed chromatin).

[4] = UV spectrum of the peptide; format: physicochemical; settings: at 290 nm
keratinocytes = assay: Cytotoxicity in keratinocytes; format: cell-based; settings: various concentrations, epidermal cells / keratinocytes
oxidized α1-antitrypsin = oxidized α1-antitrypsin (Homo sapiens, UniProt P01009); assay: Reversal of α1-antitrypsin oxidation by msrA, read out in elastase activity assay; format: biochemical; settings: oxidized A1AT incubated with 0.7 mg/mL MsrA and 10 mM DTT for 2 hours
Procedure: as §2, §3

T1 sequence (P00772 27-266): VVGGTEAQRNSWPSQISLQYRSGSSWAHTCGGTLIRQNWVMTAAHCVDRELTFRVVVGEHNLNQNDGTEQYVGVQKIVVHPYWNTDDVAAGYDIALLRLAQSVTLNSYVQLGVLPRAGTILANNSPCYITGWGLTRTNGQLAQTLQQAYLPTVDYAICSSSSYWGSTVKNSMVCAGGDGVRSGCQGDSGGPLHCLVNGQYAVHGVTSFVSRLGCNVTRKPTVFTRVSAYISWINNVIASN
Chain of oxidized α1-antitrypsin (P01009 25-418): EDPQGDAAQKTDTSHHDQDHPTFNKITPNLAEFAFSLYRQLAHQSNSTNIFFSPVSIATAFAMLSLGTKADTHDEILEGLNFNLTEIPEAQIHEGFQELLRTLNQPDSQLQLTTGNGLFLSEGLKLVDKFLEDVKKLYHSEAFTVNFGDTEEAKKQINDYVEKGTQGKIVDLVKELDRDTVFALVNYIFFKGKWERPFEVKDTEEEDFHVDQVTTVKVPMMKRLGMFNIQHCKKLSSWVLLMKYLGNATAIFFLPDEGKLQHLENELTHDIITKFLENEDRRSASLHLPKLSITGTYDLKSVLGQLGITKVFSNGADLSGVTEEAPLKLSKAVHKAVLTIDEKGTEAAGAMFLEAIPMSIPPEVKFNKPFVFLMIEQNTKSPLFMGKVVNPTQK

CSCC[C@H](NC(=O)[C@@H](Cc1ccccc1)NC(=O)CNC(=O)CNC(=O)[C@H](N)Cc1ccc(O)cc1)C(=O)O [Met-enkephalin, Met- enkephalin, reference compound]
increase in Msr expression (Msr [1]; NHEK, overnight incubation, 0.25 mg/mL): no significant increase | Msr mRNA in treated cells by Western blotting (Msr [2]): no significant increases of Msr mRNA

C[S+]([O-])CC[C@H](N)C(=O)O (some centres unmarked) [oxidized methionine, methionine sulfoxide]
level of Msr compared to a housekeeping gene (Msr [1]): not significantly raised

ATox: α1-antitrypsin oxidized in 30 mM H2O2
elastase activity with oxidized α1-antitrypsin (elastase; bar Elastase+ATox, FIG. 10, oxidized in 30 mM H2O2): all of the elastase activity returns

Oxidized bovine serum albumin: Oxidized bovine serum albumin, a comparatively large protein
level of Msr compared to a housekeeping gene (Msr [1]): without success

Tyr - Gly - Gly - Phe - MetO [MetO-enkephalin]
average increase in Msr expression (Msr [1]; NHEK, overnight incubation, oxidized peptide concentration 0.01%): 18% | average increase in Msr expression (Msr [1]; NHEK, overnight incubation, oxidized peptide concentration 0.1%): 28% | average increase in Msr expression (Msr [1]; NHEK, overnight incubation, oxidized peptide concentration 0.25%): 25.4% | Msr mRNA in treated cells by Western blotting (Msr [2]): increases of Msr mRNA | average percent reduction in SBC from both trials [3]: 31.1% | extinction coefficient [4]: 145.5 | k-value of absorbance [4]: 0.24 | cytotoxicity (keratinocytes): low cytotoxicity

α1-antitrypsin: serin protease inhibitor made in the liver, inhibits a wide variety of proteases
elastase inhibition after oxidation with H2O2 (elastase; 10 μg α1-antitrypsin oxidized with 30 mM H2O2, 3 hours, ambient temperature): almost all elastase inhibition provided by α1-antitrypsin, is lost | elastase activity (fluorescence), dose dependence (elastase; 0.1 mg/ml elastin, 0.05 units/ml elastase, α1-antitrypsin 2.5-50 ug/sample): Fluorescence decreases with increasing concentration of α1-antitrypsin | elastase activity removed (elastase; bar Elastase+AT, FIG. 10): about 90%

B1: MsrA: form of Msr involved in the reduction of the S-stereoisomer (protein, UniProt Q9UJ68 24-235, looked up)
Mitochondrial peptide …: GNSASNIVSPQEALPGRKEQTPVAAKHHVNGNRTVEPFPEGTQMAVFGMGCFWGAERKFWVLKGVYSTQVGFAGGYTSNPTYKEVCSEKTGHAEVVRVVYQPEHMSFEELLKVFWENHDPTQGMRQGNDHGTQYRSAIYPTSAKQMEAALSSKENYQKVLSEHGFGPITTDIREGQTFYYAEDYHQQYLSKNPNGYCGLGGTGVSCPVGIKK
re-inhibition of elastase activity (oxidized α1-antitrypsin): over 59%
